Patent US20090117192A1, “COMPOSITION FOR TRANSDERMAL ABSORPTION AND FORMULATION COMPRISING A POLYMERIC MATRIX FORMED THEREFROM” (priority 2007, published 2009)
Read-outs that look alike come from different tables or passages of the source.

Test: Meloxicam solubility enhancement test of sodium methoxide (saturation, HPLC)
Description: Meloxicam was mixed with an equivalent amount of sodium methoxide, and the mixture was dissolved to the saturation point in distilled water, methanol, ethylacetate, tetrahydrofuran or N-methylpyrrolidone. The resulting solution was subjected to high performance liquid chromatography to measure the meloxicam solubility.
Only Meloxicam without using sodium methoxide was dissolved to the saturation point in distilled water, methanol, ethylacetate, tetrahydrofuran or N-methylpyrrolidone, and then the resulting solution was subjected to high performance liquid chromatography to measure the meloxica solubility.

| Compound | Meloxicam solubility (saturation, HPLC) | Meloxicam solubility |
| --- | --- | --- |
| Cc1cnc(NC(=O)C2=C(O)c3ccccc3S(=O)(=O)N2C)s1 [Comparative Example 3, Meloxicam] | 1280 µg/mL |  |
| Cc1cnc(NC(=O)C2=C(O)c3ccccc3S(=O)(=O)N2C)s1 [Comparative Example 1, Meloxicam] |  | 60 µg/mL |
| Cc1cnc(NC(=O)C2=C(O)c3ccccc3S(=O)(=O)N2C)s1 [Comparative Example 5, Meloxicam] |  | 92700 µg/mL |
| Cc1cnc(NC(=O)C2=C(O)c3ccccc3S(=O)(=O)N2C)s1 [Comparative Example 4, Meloxicam] |  | 21910 µg/mL |
| Cc1cnc(NC(=O)C2=C(O)c3ccccc3S(=O)(=O)N2C)s1 [Comparative Example 2, Meloxicam] |  | 430 µg/mL |
